{"source": "patent US20070049564A1", "about": "(Wyeth, priority 2005, published 2007)", "key": {"E. coli GC 2236": {"tested_on": "E. coli GC 2236", "assay": "MIC, broth microdilution", "conditions": "Escherichia coli, GC2236, E. coli GC 2236"}, "E. coli GC 2235": {"tested_on": "E. coli GC 2235", "assay": "MIC, broth microdilution", "conditions": "Escherichia coli, GC2235, E. coli GC 2235"}, "E. coli GC 2233": {"tested_on": "E. coli GC 2233", "assay": "MIC, broth microdilution", "conditions": "Escherichia coli, GC2233, E. coli GC 2233"}, "E. coli GC 2270": {"tested_on": "E. coli GC 2270", "assay": "MIC, broth microdilution", "conditions": "Escherichia coli, GC2270, E. coli GC 2270"}, "E. coli GC 2271": {"tested_on": "E. coli GC 2271", "assay": "MIC, broth microdilution", "conditions": "Escherichia coli, GC2271, E. coli GC 2271"}, "E. coli GC 4559": {"tested_on": "E. coli GC 4559", "assay": "MIC, broth microdilution", "conditions": "Escherichia coli, GC4559, E. coli GC 4559"}, "E. coli GC 4560": {"tested_on": "E. coli GC 4560", "assay": "MIC, broth microdilution", "conditions": "Escherichia coli, GC4560, E. coli GC 4560"}, "E. coli GC 6465": {"tested_on": "E. coli GC 6465", "assay": "MIC, broth microdilution", "conditions": "Escherichia coli, GC6465, E. coli GC 6465"}, "E. coli GC 2203": {"tested_on": "E. coli GC 2203", "assay": "MIC, broth microdilution", "conditions": "Escherichia coli, GC2203, E. coli GC 2203"}, "E. coli GC 1073": {"tested_on": "E. coli GC 1073", "assay": "MIC, broth microdilution", "conditions": "Escherichia coli, GC1073, E. coli GC 1073"}, "P. aeruginosa GC 2214": {"tested_on": "P. aeruginosa GC 2214", "assay": "MIC, broth microdilution", "conditions": "Pseudomonas aeruginosa, GC2214, P. aeruginosa GC 2214"}, "S. aureus GC 6467": {"tested_on": "S. aureus GC 6467", "assay": "MIC, broth microdilution", "conditions": "Staphylococcus aureus, GC6467, S. aureus GC 6467"}, "S. aureus GC 4536": {"tested_on": "S. aureus GC 4536", "assay": "MIC, broth microdilution", "conditions": "Staphylococcus aureus, GC4536, S. aureus GC 4536"}, "S. aureus GC 6469": {"tested_on": "S. aureus GC 6469", "assay": "MIC, broth microdilution", "conditions": "Staphylococcus aureus, GC6469, S. aureus GC 6469"}, "E. faecalis GC 4555": {"tested_on": "E. faecalis GC 4555", "assay": "MIC, broth microdilution", "conditions": "Enterococcus faecalis, GC4555, E. faecalis GC 4555"}, "E. faecalis GC 2265": {"tested_on": "E. faecalis GC 2265", "assay": "MIC, broth microdilution", "conditions": "Enterococcus faecalis, GC2265, E. faecalis GC 2265", "protocol": "Antimicrobial susceptibility testing. The in vitro activities of the antibiotics are determined by the broth microdilution method as recommended by the National Committee for Clinical Laboratory Standards (NCCLS) (1). Mueller-Hinton II broth (MHBII)(BBL Cockeysville, Md.) is the medium employed in the testing procedures. Microtiter plates containing serial dilutions of each antimicrobial agent are inoculated with each organism to yield the appropriate density (10^5 CFU/ml) in a 100 μl final volume. The plates are incubated for 18-22 hours at 35° C. in ambient air.\nRepresentative compounds were first incubated in mouse serum for an hour prior to the in vitro testing against a panel of selected gram-positive and gram-negative bacteria strains. All compounds were also pre-incubated in water for an hour prior to testing as control."}, "E. faecalis GC 2242": {"tested_on": "E. faecalis GC 2242", "assay": "MIC, broth microdilution", "conditions": "Enterococcus faecalis, GC2242, E. faecalis GC 2242"}, "S. agalactiae GC 4564": {"tested_on": "S. agalactiae GC 4564", "assay": "MIC, broth microdilution", "conditions": "Streptococcus agalactiae, GC4564, S. agalactiae GC 4564"}, "E. coli": {"tested_on": "E. coli", "assay": "Range of MIC for E. coli strains", "conditions": "Escherichia coli"}, "Staph.": {"tested_on": "Staph.", "assay": "Range of MIC for Staph. strains, including MRSA", "conditions": "Staphylococcus aureus, MRSA"}}, "note": "Where two headings read alike, the source gives them in different places."}
{"compound": "CCCN(CC(=O)Nc1cc(N(C)C)c2c(c1O)C(=O)C1=C(O)[C@]3(O)C(=O)C(C(N)=O)=C(O)[C@@H](N(C)C)[C@@H]3C[C@@H]1C2)C(=O)OCOC(=O)C(C)(C)C", "note": "[Example 9, ({[(2-{[(5aR,6aS,7S,10aS)-9-(aminocarbonyl)-4,7-bis(dimethylamino)-1,8,10a,11-tetrahydroxy-10,12-dioxo-5,5a,6,6a,7,10,10a,12-octahydrotetracen-2-yl]amino}-2-oxoethyl)(propyl)amino]carbonyl}oxy)methyl pivalate]", "values": [{"measurement": "MIC", "setting": "E. coli GC 2236; Mouse Serum pre-incubation", "value": 1, "unit": "µg/mL"}, {"measurement": "MIC", "setting": "E. coli GC 2236; Water pre-incubation", "value": 8, "unit": "µg/mL"}, {"measurement": "MIC", "setting": "E. coli GC 2235; Mouse Serum pre-incubation", "value": 0.5, "unit": "µg/mL"}, {"measurement": "MIC", "setting": "E. coli GC 2235; Water pre-incubation", "value": 4, "unit": "µg/mL"}, {"measurement": "MIC", "setting": "E. coli GC 2233; Mouse Serum pre-incubation", "value": 0.5, "unit": "µg/mL"}, {"measurement": "MIC", "setting": "E. coli GC 2233; Water pre-incubation", "value": 4, "unit": "µg/mL"}, {"measurement": "MIC", "setting": "E. coli GC 2270; Mouse Serum pre-incubation", "value": 0.5, "unit": "µg/mL"}, {"measurement": "MIC", "setting": "E. coli GC 2270; Water pre-incubation", "value": 4, "unit": "µg/mL"}, {"measurement": "MIC", "setting": "E. coli GC 2271; Mouse Serum pre-incubation", "value": 0.5, "unit": "µg/mL"}, {"measurement": "MIC", "setting": "E. coli GC 2271; Water pre-incubation", "value": 8, "unit": "µg/mL"}, {"measurement": "MIC", "setting": "E. coli GC 4559; Mouse Serum pre-incubation", "value": 1, "unit": "µg/mL"}, {"measurement": "MIC", "setting": "E. coli GC 4559; Water pre-incubation", "value": 8, "unit": "µg/mL"}, {"measurement": "MIC", "setting": "E. coli GC 4560; Mouse Serum pre-incubation", "value": 0.25, "unit": "µg/mL"}, {"measurement": "MIC", "setting": "E. coli GC 4560; Water pre-incubation", "value": 1, "unit": "µg/mL"}, {"measurement": "MIC", "setting": "E. coli GC 6465; Mouse Serum pre-incubation", "value": 4, "unit": "µg/mL"}, {"measurement": "MIC", "setting": "E. coli GC 6465; Water pre-incubation", "value": "> 64", "unit": "µg/mL"}, {"measurement": "MIC", "setting": "E. coli GC 2203; Mouse Serum pre-incubation", "value": 0.5, "unit": "µg/mL"}, {"measurement": "MIC", "setting": "E. coli GC 2203; Water pre-incubation", "value": 4, "unit": "µg/mL"}, {"measurement": "MIC", "setting": "E. coli GC 1073; Mouse Serum pre-incubation", "value": 1, "unit": "µg/mL"}, {"measurement": "MIC", "setting": "E. coli GC 1073; Water pre-incubation", "value": 8, "unit": "µg/mL"}, {"measurement": "MIC", "setting": "P. aeruginosa GC 2214; Mouse Serum pre-incubation", "value": 16, "unit": "µg/mL"}, {"measurement": "MIC", "setting": "P. aeruginosa GC 2214; Water pre-incubation", "value": "> 64", "unit": "µg/mL"}, {"measurement": "MIC", "setting": "S. aureus GC 6467; Mouse Serum pre-incubation", "value": 1, "unit": "µg/mL"}, {"measurement": "MIC", "setting": "S. aureus GC 6467; Water pre-incubation", "value": 2, "unit": "µg/mL"}, {"measurement": "MIC", "setting": "S. aureus GC 4536; Mouse Serum pre-incubation", "value": 0.5, "unit": "µg/mL"}, {"measurement": "MIC", "setting": "S. aureus GC 4536; Water pre-incubation", "value": 0.5, "unit": "µg/mL"}, {"measurement": "MIC", "setting": "S. aureus GC 6469; Mouse Serum pre-incubation", "value": 1, "unit": "µg/mL"}, {"measurement": "MIC", "setting": "S. aureus GC 6469; Water pre-incubation", "value": 2, "unit": "µg/mL"}, {"measurement": "MIC", "setting": "E. faecalis GC 4555; Mouse Serum pre-incubation", "value": 0.5, "unit": "µg/mL"}, {"measurement": "MIC", "setting": "E. faecalis GC 4555; Water pre-incubation", "value": 2, "unit": "µg/mL"}, {"measurement": "MIC", "setting": "E. faecalis GC 2265; Mouse Serum pre-incubation", "value": 1, "unit": "µg/mL"}, {"measurement": "MIC", "setting": "E. faecalis GC 2265; Water pre-incubation", "value": 2, "unit": "µg/mL"}, {"measurement": "MIC", "setting": "E. faecalis GC 2242; Mouse Serum pre-incubation", "value": 0.5, "unit": "µg/mL"}, {"measurement": "MIC", "setting": "E. faecalis GC 2242; Water pre-incubation", "value": 1, "unit": "µg/mL"}, {"measurement": "MIC", "setting": "S. agalactiae GC 4564; Mouse Serum pre-incubation", "value": 0.12, "unit": "µg/mL"}, {"measurement": "MIC", "setting": "S. agalactiae GC 4564; Water pre-incubation", "value": 0.25, "unit": "µg/mL"}, {"measurement": "MIC", "setting": "E. coli; 20 h, read-out: Range of MIC, E. coli (Mouse Serum)", "value": "0.5 to 2", "unit": "µg/mL"}, {"measurement": "MIC", "setting": "E. coli; read-out: Range of MIC, E. coli (Water)", "value": "4 to 64", "unit": "µg/mL"}, {"measurement": "MIC", "setting": "E. coli; read-out: Range of MIC, E. coli (mouse serum)", "value": "0.5 to 2", "unit": "µg/mL"}, {"measurement": "MIC", "setting": "E. coli; read-out: Range of MIC, E. coli (water)", "value": "4 to 64", "unit": "µg/mL"}, {"measurement": "MIC", "setting": "Staph.; read-out: Range of MIC, Staph (Mouse Serum)", "value": "0.06 to 2", "unit": "µg/mL"}, {"measurement": "MIC", "setting": "Staph.; read-out: Range of MIC, Staph (Water)", "value": "0.12 to 2", "unit": "µg/mL"}, {"measurement": "MIC", "setting": "Staph.; read-out: Range of MIC, Staph. (mouse serum)", "value": "0.06 to 1", "unit": "µg/mL"}, {"measurement": "MIC", "setting": "Staph.; read-out: Range of MIC, Staph. (water)", "value": "0.12 to 2", "unit": "µg/mL"}]}
